Experimental findings from article PMC5988755, “First characterization of a microsporidial triosephosphate isomerase and the biochemical mechanisms of its inactivation to propose a new druggable target” (Scientific Reports, 2018) are described below.

Data set [1] has as its target T1, EiTIM (triosephosphate isomerase of E. intestinalis) (Encephalitozoon intestinalis, UniProt E0SA87).
T1 construct: gene Eint_110100; full length, synthetic codon-optimised gene (silent A479G) in pET-3aHisTEV, E. coli BL21(DE3)pLysS; N-terminal His-tag removed with TEV protease; homodimer
T1 sequence (E0SA87 1-242): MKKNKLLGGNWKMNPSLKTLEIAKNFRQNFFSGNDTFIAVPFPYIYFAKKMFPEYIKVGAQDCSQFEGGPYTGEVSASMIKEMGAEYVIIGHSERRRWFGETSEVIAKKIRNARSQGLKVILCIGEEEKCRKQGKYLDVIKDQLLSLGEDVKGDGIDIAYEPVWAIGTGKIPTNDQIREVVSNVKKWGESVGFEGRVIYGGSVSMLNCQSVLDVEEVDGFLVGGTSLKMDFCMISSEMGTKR
The data set is described as follows: residual activity after incubation, alpha-GDH coupled assay (NADH, […] nm). It counts as biochemical. The conditions noted are these: read-out: 50% inactivation.

Data set [2] concerns the target T1, EiTIM (triosephosphate isomerase of E. intestinalis). The data set is described as above. It counts as biochemical. The following applies: covalent; 0.5 mM compound, 2 h at 37 °C; residual activity relative to untreated control; 3 Cys derivatized per subunit.
For data set [3] the target is unchanged. In words: thermal denaturation by CD at […] nm of derivatized enzyme. It counts as binding. The following applies: covalent; 0.5 mM compound, 2 h at 37 °C, excess removed; untreated control Tm 52.8 ± 1.5 °C.
Data set [4] shares this target. The data set is described as follows: residual activity after incubation, alpha-GDH coupled assay (NADH, […] nm). The following applies: covalent (Cys derivatization suggested), 0.5 mg/mL enzyme, 2 h at 37 °C, drug 0-50 μM. It counts as biochemical.
Substrate in the data set “purified protein”: O=C[C@H](O)COP(=O)(O)O
In words: purified protein. The conditions noted are these: GAP to DHAP direction, 25 °C, 0.2 mM NADH, 0.9 U alpha-GDH, GAP 0.2-10 mM.

On to `CC(=C(CCOC(=O)C(C)C)SSC(CCOC(=O)C(C)C)=C(C)N(C=O)Cc1cnc(C)nc1N)N(C=O)Cc1cnc(C)nc1N` (stereo in doubt) [sulbutiamine], for which the IC50 in data set [1] was 2.5 µM. On the same count and under the same terms, to `O=C(O)c1cc(SSc2ccc([N+](=O)[O-])c(C(=O)O)c2)ccc1[N+](=O)[O-]` [DTNB, 5,5′-dithiobis(2-nitrobenzoic acid)] belongs 25 µM. For the molecule `CSS(C)(=O)=O` [MMTS], the “Activity (%)^*” value in data set [2] is given as 17.3 ± 5.5%. Moreover, in data set [3], the “Tm (°C)^*” value came out at 49.8 ± 2.1 °C. `CS(=O)(=O)SCCS(=O)(=O)O` [MTSES, sodium (2-sulfonatoethyl) methanethiosulfonate]: in data set [2], the “Activity (%)^*” value is 2.4 ± 1.1%. The “Tm (°C)^*” value in data set [3] was determined as 48.6 ± 1.9 °C. Turning to `COc1ccc2[nH]c([S+]([O-])Cc3ncc(C)c(OC)c3C)nc2c1` (centres unmarked) [omeprazole], the 50% inactivation entry in data set [4] (omeprazole pre-activated with acid (HCl, 3 h)) was “sulbutiamine was two- and three-fold more effective than rabeprazole and omeprazole, respectively”. Take `COCCCOc1ccnc(C[S+]([O-])c2nc3ccccc3[nH]2)c1C` (centres unmarked) [rabeprazole]: the 50% inactivation entry in data set [4] is “sulbutiamine was two- and three-fold more effective than rabeprazole and omeprazole, respectively”.

B1: EiTIM (triosephosphate isomerase of E. intestinalis) (Encephalitozoon intestinalis ATCC 50506) (protein)
chain: T1 sequence (E0SA87 1-242)
Regarding B1, in the data set “purified protein”, the Km stood at 830 ± 200 µM, the kcat stood at 1680 s⁻¹ and the kcat/Km turned out to be 2e+06 M⁻¹ s⁻¹.

As a reminder, the Km is the concentration of substrate that gives half-maximal velocity. Usually kcat stands for the number of substrate molecules converted per active site and unit of time at saturation. As a reminder, the kcat/Km is the turnover number divided by the Michaelis constant.
